According to patent US10351549B2, “Amide derivatives having multimodal activity against pain” (priority 2015, dated 2019):

The compounds below were run against human σ1 receptor and human μ-opioid receptor (assay: Human σ1 receptor and human μ-opioid receptor radioligand assays (μ and σ1 dual binding)). Conditions: joint class for Ki at σ1 ([3H](+)-pentazocine, transfected HEK-293 membranes) and Ki at μ-opioid ([3H]-DAMGO, transfected CHO-K1 membranes).
Design: key to μ and σ1 dual binding: +: Both Ki-μ and Ki-σ1>=500 nM; ++: One Ki<500 nM while the other Ki is >=500 nM; +++: Both Ki-μ and Ki-σ1<500 nM; ++++: Both Ki-μ and K1-σ1<100 nM

| Compound | Ki [nM] | μ and σ1 dual binding |
| --- | --- | --- |
| CCC(=O)N(CCN1CCC(N(C)Cc2ccccc2)C1)c1ccccc1 (centres unmarked) [Example 2, N-(2-(3-(benzyl(methyl)amino)pyrrolidin-1-yl)ethyl)-N-phenylpropionamide] | < 500 |  |
| CCC(=O)N(CCN1CC(N(C)Cc2ccccc2)C1)c1cccc(C(F)(F)F)n1 [Example 9, N-(2-(3-(benzyl(methyl)amino)azetidin-1-yl)ethyl)-N-(6-(trifluoromethyl)pyridin-2-yl)propionamide] |  | ++ |
| CCC(=O)N(CCN1CC2CN(CC(C)C)CC2C1)c1cccc(C(F)(F)F)n1 (centres unmarked) [Example 18, N-(2-(5-isobutylhexahydropyrrolo[3,4-c]pyrrol-2(1H)-yl)ethyl)-N-(6-(trifluoromethyl)pyridin-2-yl)propionamide] |  | ++ |
| CCC(=O)N(CCN1CCC(N(C)Cc2ccccc2)C1)c1cccc(C(F)(F)F)n1 (centres unmarked) [Example 5, N-(2-(3-(benzyl(methyl)amino)pyrrolidin-1-yl)ethyl)-N-(6-(trifluoromethyl)pyridin-2-yl)propionamide] | ≥ 500 |  |
| CCC(=O)N(CCN1CCC(N(C)Cc2ccccc2)C1)c1cccc(C(F)(F)F)n1 (centres unmarked) [Example 6] |  | ++ |
| CCC(=O)N(CCN1CC[C@H](N(C)Cc2ccccc2)C1)c1ccccc1 [Example 3, (S)-N-(2-(3-(benzyl(methyl)amino)pyrrolidin-1-yl)ethyl)-N-phenylpropionamide] |  | ++ |
| CCC(=O)N(CCN1CC[C@@H](N(C)Cc2ccccc2)C1)c1ccccc1 [Example 4, (R)-N-(2-(3-(benzyl(methyl)amino)pyrrolidin-1-yl)ethyl)-N-phenylpropionamide] | < 500 |  |
| CCC(=O)N(CCN1CCC(N(C)Cc2ccccc2)C1)c1ncccc1F (centres unmarked) [Example 1, N-(2-(3-(Benzyl(methyl)amino)pyrrolidin-1-yl)ethyl)-N-(3-fluoropyridin-2-yl)propionamide] |  | ++ |
| CCOCCN(C)C1CCN(CCN(C(=O)CC)c2cccc(C(F)(F)F)n2)C1 (centres unmarked) [Example 16] | ≥ 500 |  |
| CCC(=O)N(CCN1CCC(N(C)CC(C)C)C1)c1cccc(C(F)(F)F)n1 (centres unmarked) [Example 12, N-(2-(3-(isobutyl(methyl)amino)pyrrolidin-1-yl)ethyl)-N-(6-(trifluoromethyl)pyridin-2-yl)propionamide] | ≥ 500 |  |
| CCOCCN(C)C1CCN(CCN(C(=O)CC)c2cccc(C(F)(F)F)n2)C1 (centres unmarked) [Example 17] | ≥ 500 |  |
